Results taken from ChEMBL document CHEMBL5647692, “The novel dual PI3K/mTOR inhibitor NVP-BGT226 displays cytotoxic activity in both normoxic and hypoxic hepatocarcinoma cells” (Oncotarget, 2015).
Active and inactive are the calls of the source. The calls are words filed in the database; no cut-off is given here.

Legend:
[1] = Inhibition of PI3K/Akt/mTOR signaling pathway in human Mahlavu cells assessed as reduction in phosphorylation of GSK3 alpha/beta incubated for 1 hr under normoxia condition by Western blotting analysis; type: cell-based; conditions: dose 0.25-1 µM
[2] = system: SNU-449; experiment: Induction of apoptosis in human SNU-449 cells assessed as early apoptotic cells at IC50 concentration incubated for 24 hrs in presence of Z-VAD-fmk by Annexin-V/7-AAD staining based muse cell analyzer method (reference value: 3.95 %); type: functional
[3] = Inhibition of PI3K/Akt/mTOR signaling pathway in human Mahlavu cells assessed as reduction in S6 phosphorylation at 1 to 10 nM incubated for 1 hr under hypoxia condition by Western blotting analysis; type: cell-based; conditions: dose 1-10 nM
[4] = system: Mahlavu; experiment: Induction of autophagy in human Mahlavu cells assessed as increase in LC3I to LC3II conversion at 0.5 uM incubated for 24 hrs under hypoxia condition by Western blot analysis; type: functional, cell-based
[5] = system: SNU-475; experiment: Induction of autophagy in human SNU-475 cells assessed as increased expression of LC3A/B II level incubated for 24 hrs under hypoxia condition by Western blot analysis; type: functional, cell-based; conditions: dose 0.1-0.5 µM
[6] = system: Mahlavu; experiment: Cytotoxicity against human Mahlavu cells assessed as reduction in cell viability incubated for 24 hrs under normoxia condition by MTT assay; type: functional, cell-based
[7] = Inhibition of PI3K/Akt/mTOR signaling pathway in human Mahlavu cells assessed as reduction in phosphorylation of Akt at 1 to 10 nM incubated for 1 hr under hypoxia condition by Western blotting analysis; type: cell-based; conditions: dose 1-10 nM
[8] = system: Hep 3B2; experiment: Induction of cell cycle arrest in human Hep3B cells assessed as increase in accumulation of cells in G0/G1 phase incubated at 0.01 to 0.1 uM for 24 hrs by propidium iodide staining based muse cell analysis; type: functional; conditions: dose 0.01-0.1 µM
[9] = Inhibition of PI3K/Akt/mTOR signaling pathway in human SNU-475 cells assessed as reduction in phosphorylation of mTORC1 substrate S6 incubated for 1 hr under normoxia condition by Western blotting analysis; type: cell-based; conditions: dose 0.25-1 µM
[10] = system: SNU-475; experiment: Induction of autophagy in human SNU-475 cells assessed as reduction in cytotoxicity at 0.5 uM incubated for 24 hrs by MTT assay; type: functional, cell-based
[11] = system: Hep 3B2; experiment: Induction of cell cycle arrest in human Hep3B cells assessed as decrease in accumulation of cells in S phase incubated at 0.01 to 0.1 uM for 24 hrs by propidium iodide staining based muse cell analysis; type: functional; conditions: dose 0.01-0.1 µM
[12] = system: SNU-475; experiment: Induction of autophagy in human SNU-475 cells assessed as increase in lipidation of LC3I to LC3II at 0.5 uM incubated for 24 hrs by Western blot analysis; type: functional, cell-based
[13] = system: Mahlavu; experiment: Induction of apoptosis in human Mahlavu cells assessed as early apoptotic cells at IC50 incubated for 24 hrs in presence of Z-VAD-fmk by Annexin-V/7-AAD staining based muse cell analyzer method (reference value: 6.57 %); type: functional
[14] = Inhibition of PI3K/Akt/mTOR signaling pathway in human SNU-475 cells assessed as reduction in phosphorylation of Akt at 1 to 10 nM incubated for 1 hr under normoxia condition by Western blotting analysis; type: cell-based; conditions: dose 1-10 nM
[15] = system: Hep 3B2; experiment: Induction of cell cycle arrest in human Hep3B cells assessed as decrease in accumulation of cells in G2/M phase incubated at 0.01 to 0.1 uM for 24 hrs by propidium iodide staining based muse cell analysis; type: functional; conditions: dose 0.01-0.1 µM
[16] = molecular target: Hypoxia-inducible factor 1-alpha (Homo sapiens) (UniProt Q16665); experiment: Inhibition of HIF-1alpha in human Mahlavu cells incubated for 6 hrs under hypoxia condition by Western blot analysis; type: cell-based; conditions: dose 0.01-0.1 µM
Sequence of Hypoxia-inducible factor 1-alpha (Homo sapiens) (Q16665 whole entry, looked up): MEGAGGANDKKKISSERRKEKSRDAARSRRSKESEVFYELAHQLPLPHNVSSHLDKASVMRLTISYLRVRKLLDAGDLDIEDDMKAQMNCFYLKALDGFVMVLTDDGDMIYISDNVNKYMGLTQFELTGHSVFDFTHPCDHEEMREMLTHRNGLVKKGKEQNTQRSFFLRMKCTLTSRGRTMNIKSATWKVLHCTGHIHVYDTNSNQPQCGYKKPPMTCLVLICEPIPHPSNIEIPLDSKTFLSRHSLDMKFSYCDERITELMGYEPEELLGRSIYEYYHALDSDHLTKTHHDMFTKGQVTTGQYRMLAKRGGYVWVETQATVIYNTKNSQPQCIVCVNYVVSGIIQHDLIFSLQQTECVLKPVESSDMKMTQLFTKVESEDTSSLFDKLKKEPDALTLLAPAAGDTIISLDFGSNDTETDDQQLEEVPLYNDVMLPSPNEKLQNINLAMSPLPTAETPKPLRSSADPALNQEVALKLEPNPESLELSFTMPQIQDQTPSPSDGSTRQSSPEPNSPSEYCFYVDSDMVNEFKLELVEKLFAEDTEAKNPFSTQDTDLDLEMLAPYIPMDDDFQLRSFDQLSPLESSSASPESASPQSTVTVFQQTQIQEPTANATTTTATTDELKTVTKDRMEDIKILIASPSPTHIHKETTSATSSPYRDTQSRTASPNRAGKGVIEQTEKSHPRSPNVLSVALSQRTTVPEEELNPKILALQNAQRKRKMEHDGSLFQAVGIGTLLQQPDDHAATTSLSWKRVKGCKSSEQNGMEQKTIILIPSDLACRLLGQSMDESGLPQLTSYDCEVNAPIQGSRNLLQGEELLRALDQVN

[17] = system: Mahlavu; experiment: Induction of apoptosis in human Mahlavu cells assessed as late apoptotic cells at IC50 incubated for 24 hrs in presence of Z-VAD-fmk by Annexin-V/7-AAD staining based muse cell analyzer method (reference value: 2.24 %); type: functional
[18] = system: Hep 3B2; experiment: Induction of apoptosis in human Hep3B cells assessed as cleaved Caspase 9 level at 0.5 uM incubated for 24 hrs by Western blotting analysis; type: functional, cell-based
[19] = system: SNU-475; experiment: Induction of autophagy in human SNU-475 cells assessed as increase in LC3I to LC3II conversion at 0.5 uM incubated for 24 hrs under hypoxia condition by Western blot analysis; type: functional, cell-based
[20] = system: HepG2; experiment: Cytotoxicity against human HepG2 cells assessed as reduction in cell viability at 0.5 uM incubated for 24 hrs in presence of 3-Methyladenine by MTT assay; type: functional, cell-based
[21] = system: SNU-475; experiment: Cytotoxicity against human SNU-475 cells assessed as reduction in cell viability at 0.5 uM incubated for 24 hrs in presence of chloroquine by MTT assay; type: functional, cell-based
[22] = Inhibition of PI3K/Akt/mTOR signaling pathway in human SNU-449 cells assessed as reduction in phosphorylation of Akt incubated for 1 hr under normoxia condition by Western blotting analysis; type: cell-based; conditions: dose 0.25-1 µM
[23] = system: Mahlavu; experiment: Induction of cell cycle arrest in human Mahlavu cells assessed as decrease in accumulation of cells in S phase incubated at 0.01 to 0.1 uM for 24 hrs by propidium iodide staining based muse cell analysis; type: functional; conditions: dose 0.01-0.1 µM
[24] = system: Hep 3B2; experiment: Induction of apoptosis in human Hep3B cells incubated for 24 hrs by Annexin-V/7-AAD staining based muse cell analyzer method; type: functional; conditions: dose 0.01-0.5 µM
[25] = system: SNU-475; experiment: Induction of autophagy in human SNU-475 cells assessed as increase in lipidation of LC3A/B II level at 0.5 uM incubated for 24 hrs in presence of chloroquine by Western blot analysis; type: functional, cell-based
[26] = system: SNU-475; experiment: Cytotoxicity against human SNU-475 cells assessed as reduction in cell viability at 0.5 uM incubated for 24 hrs in presence of 3-Methyladenine by MTT assay; type: functional, cell-based
[27] = system: Hep 3B2; experiment: Induction of apoptosis in human Hep3B cells assessed as cleaved Caspase 7 level at 0.5 uM incubated for 24 hrs by Western blotting analysis; type: functional, cell-based
[28] = system: SNU-449; experiment: Induction of apoptosis in human SNU-449 cells assessed as early apoptotic cells at 1.5 uM incubated for 24 hrs by Annexin-V/7-AAD staining based muse cell analyzer method (reference value: 3.95 %); type: functional
[29] = system: SNU-475; experiment: Induction of autophagy in human SNU-475 cells assessed as reduction in SQSTM1/p62 level by Western blot analysis; type: functional, cell-based; conditions: dose 0.1-0.5 µM
[30] = system: Mahlavu; experiment: Induction of cell cycle arrest in human Mahlavu cells assessed as increase in accumulation of cells in G0/G1 phase incubated at 0.01 to 0.1 uM for 24 hrs by propidium iodide staining based muse cell analysis; type: functional; conditions: dose 0.01-0.1 µM
[31] = Inhibition of PI3K/Akt/mTOR signaling pathway in human SNU-475 cells assessed as reduction in phosphorylation of GSK3 alpha/beta incubated for 1 hr under normoxia condition by Western blotting analysis; type: cell-based; conditions: dose 0.25-1 µM
[32] = system: SNU-449; experiment: Cytotoxicity against human SNU-449 cells assessed as reduction in cell viability incubated for 24 hrs under normoxia condition by MTT assay; type: functional, cell-based
[33] = system: SNU-449; experiment: Cytotoxicity against human SNU-449 cells assessed as reduction in cell viability incubated for 24 hrs under hypoxia condition by MTT assay; type: functional, cell-based
[34] = system: Hep 3B2; experiment: Cytotoxicity against human Hep3B cells assessed as reduction in cell viability incubated for 24 hrs under hypoxia condition by MTT assay; type: functional, cell-based
[35] = system: Mahlavu; experiment: Anti-tumor activity against human Mahlavu cells assessed as reduction of VEGF level incubated for 24 hrs under hypoxia condition by Western blot analysis; type: functional, cell-based; conditions: dose 0.01-0.1 µM

## COc1ccc(-c2ccc3ncc4c(c3c2)n(-c2ccc(N3CCNCC3)c(C(F)(F)F)c2)c(=O)n4C)cn1 [BGT-226 FREE BASE]
[1]
  inhibition: Dose-Dependent Effect
[2]
  Activity: 11.94%
[3]
  inhibition: Active
[4]
  Activity: Dose-Dependent Effect
[5]
  Activity: Dose-Dependent Effect
[6]
  Activity: Active
[7]
  inhibition: Active
[8]
  Activity: Active
[9]
  inhibition: Dose-Dependent Effect
[10]
  Activity: Active
[11]
  Activity: Active
[12]
  Activity: Active
[13]
  Activity: 11.97%
[14]
  inhibition: Active
[15]
  Activity: Active
[16]
  inhibition: Dose-Dependent Effect
[17]
  Activity: 5.85%
[18]
  Activity: Active
[19]
  Activity: Dose-Dependent Effect
[20]
  Activity: Active
[21]
  Activity: Active
[22]
  inhibition: Dose-Dependent Effect
[23]
  Activity: Active
[24]
  Activity: Dose-Dependent Effect
[25]
  Activity: Active
[26]
  Activity: Active
[27]
  Activity: Active
[28]
  Activity: 18.2%
[29]
  Activity: Dose-Dependent Effect
[30]
  Activity: Active
[31]
  inhibition: Dose-Dependent Effect
[32]
  Activity: Active
[33]
  Activity: Active
[34]
  Activity: Active
[35]
  Activity: Dose-Dependent Effect
